Measurements published in patent US20250114338A1, “TETRAHYDRO-PYRIDO[3,4-b]INDOLE ESTROGEN RECEPTOR MODULATORS AND USES THEREOF” (Genentech, Inc., priority 2014, published 2025).

Test system: ER-alpha MCF7
Experiment: ER-alpha MCF7 HCS EC50; stated as measured by in vitro cell proliferation assays of Examples 902 and 903
Assay type: cell-based
Settings: Homo sapiens, MCF7, MCF7 cells; Table 2
Procedure, shortened: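 MCF7 cells seeded 1000-2000 cells/well for 16 h, then treated with nine-point 1:2 DMSO dilution series in quadruplicate at 37 °C, 5% CO2 for 4 days. Viable cells quantified by CellTiter-Glo ATP luminescence; EC50 calculated. Controls: fulvestrant at final 100 nM, DMSO 0.2% v/v.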

| SMILES | EC50 [nM] |
| --- | --- |
| C[C@@H]1Cc2c([nH]c3ccccc23)[C@@H](c2c(F)cc(OCCN3CC(F)(CF)C3)cc2F)N1CC(C)(C)F [Example 205, (1R,3R)-1-[2,6-difluoro-4-[2-[3-fluoro-3-(fluoromethyl)azetidin-1-yl]ethoxy]phenyl]-2-(2-fluoro-2-methyl-propyl)-3-methyl-1,3,4,9-tetrahydropyrido[3,4-b]indole] | 0.375 |
| C[C@@H]1Cc2c([nH]c3ccccc23)[C@@H](c2c(F)cc(OCCN3CC(CF)C3)cc2F)N1C(=O)CCC#N [Example 206, 4-[(1R,3R)-1-[2,6-difluoro-4-[2-[3-(fluoromethyl)azetidin-1-yl]ethoxy]phenyl]-3-methyl-1,3,4,9-tetrahydropyrido[3,4-b]indol-2-yl]-4-oxo-butanenitrile] | 31 |
| C[C@@H]1Cc2c([nH]c3ccccc23)[C@@H](c2c(F)cc(OCCN3CC(CF)C3)cc2F)N1CC1CCCCC1 [Example 207, (1R,3R)-2-(cyclohexylmethyl)-1-[2,6-difluoro-4-[2-[3-(fluoromethyl)azetidin-1-yl]ethoxy]phenyl]-3-methyl-1,3,4,9-tetrahydropyrido[3,4-b]indole] | 13 |
| C[C@@H]1Cc2c([nH]c3ccccc23)[C@@H](c2c(F)cc(OC3CN(CCC4COC4)C3)cc2F)N1CC(C)(C)F [Example 208, (1R,3R)-1-[2,6-difluoro-4-[1-[2-(oxetan-3-yl)ethyl]azetidin-3-yl]oxy-phenyl]-2-(2-fluoro-2-methyl-propyl)-3-methyl-1,3,4,9-tetrahydropyrido[3,4-b]indole] | 0.066 |
| C[C@@H]1Cc2c([nH]c3ccccc23)[C@@H](c2c(F)cc(OC3CN(CC4CCCCC4)C3)cc2F)N1CC(C)(C)F [Example 209, (1R,3R)-1-[4-[1-(cyclohexylmethyl)azetidin-3-yl]oxy-2,6-difluoro-phenyl]-2-(2-fluoro-2-methyl-propyl)-3-methyl-1,3,4,9-tetrahydropyrido[3,4-b]indole] | 8 |
| C[C@@H]1Cc2c([nH]c3ccccc23)[C@@H](c2ccc(OCCN3CC(CF)C3)cc2Cl)N1CC(C)(C)F [Example 210, (1R,3R)-1-[2-chloro-4-[2-[3-(fluoromethyl)azetidin-1-yl]ethoxy]phenyl]-2-(2-fluoro-2-methyl-propyl)-3-methyl-1,3,4,9-tetrahydropyrido[3,4-b]indole] | 0.1 |
| C[C@@H]1Cc2c([nH]c3ccccc23)[C@@H](c2ccc(OC3CN(CCCF)C3)cc2Cl)N1CC(C)(C)F [Example 211, (1R,3R)-1-[2-chloro-4-[1-(3-fluoropropyl)azetidin-3-yl]oxy-phenyl]-2-(2-fluoro-2-methyl-propyl)-3-methyl-1,3,4,9-tetrahydropyrido[3,4-b]indole] | 0.2 |
| CC(O)CC(=O)N1[C@H](c2c(F)cc(OCCN3CC(CF)C3)cc2F)c2[nH]c3ccccc3c2C[C@H]1C (stereo partly drawn) [Example 212, 1-((1R,3R)-1-(2,6-difluoro-4-(2-(3-(fluoromethyl)azetidin-1-yl)ethoxy)phenyl)-3-methyl-3,4-dihydro-1H-pyrido[3,4-b]indol-2(9H)-yl)-3-hydroxybutan-1-one] | 1 |
| C[C@@H]1Cc2c([nH]c3ccccc23)[C@@H](c2c(F)cc(OCCN3CC(CF)C3)cc2F)N1C(=O)C1COC1 [Example 213, [(1R,3R)-1-[2,6-difluoro-4-[2-[3-(fluoromethyl)azetidin-1-yl]ethoxy]phenyl]-3-methyl-1,3,4,9-tetrahydropyrido[3,4-b]indol-2-yl]-(oxetan-3-yl)methanone] | 4 |
| C[C@@H]1Cc2c([nH]c3ccccc23)[C@@H](c2c(F)cc(OCCN3CC(CF)C3)cc2F)N1C(=O)C1CSC1 [Example 214, [(1R,3R)-1-[2,6-difluoro-4-[2-[3-(fluoromethyl)azetidin-1-yl]ethoxy]phenyl]-3-methyl-1,3,4,9-tetrahydropyrido[3,4-b]indol-2-yl]-(thietan-3-yl)methanone] | 4 |
| C[C@@H]1Cc2c([nH]c3ccccc23)[C@@H](c2c(F)cc(OCCN3CC(CF)C3)cc2F)N1C(=O)[C@@H](C)CF [Example 215, (R)-1-((1R,3R)-1-(2,6-difluoro-4-(2-(3-(fluoromethyl)azetidin-1-yl)ethoxy)phenyl)-3-methyl-1,3,4,9-tetrahydro-2H-pyrido[3,4-b]indol-2-yl)-3-fluoro-2-methylpropan-1-one] | 0.335 |
| C[C@@H]1Cc2c([nH]c3ccccc23)[C@@H](c2c(F)cc(OCCN3CC(CF)C3)cc2F)N1CC1CCCC1 [Example 216, (1R,3R)-2-(cyclopentylmethyl)-1-[2,6-difluoro-4-[2-[3-(fluoromethyl)azetidin-1-yl]ethoxy]phenyl]-3-methyl-1,3,4,9-tetrahydropyrido[3,4-b]indole] | 1 |
| C[C@@H]1Cc2c([nH]c3ccccc23)[C@@H](c2c(F)cc(OC3CN(CC4CCC(F)(F)CC4)C3)cc2F)N1CC(C)(C)F [Example 217, (1R,3R)-1-[4-[1-[(4,4-difluorocyclohexyl)methyl]azetidin-3-yl]oxy-2,6-difluoro-phenyl]-2-(2-fluoro-2-methyl-propyl)-3-methyl-1,3,4,9-tetrahydropyrido[3,4-b]indole] | 2 |
| C[C@H](CF)C(=O)N1[C@H](c2c(F)cc(OCCN3CC(CF)C3)cc2F)c2[nH]c3ccccc3c2C[C@H]1C [Example 218, (S)-1-((1R,3R)-1-(2,6-difluoro-4-(2-(3-(fluoromethyl)azetidin-1-yl)ethoxy)phenyl)-3-methyl-1,3,4,9-tetrahydro-2H-pyrido[3,4-b]indol-2-yl)-3-fluoro-2-methylpropan-1-one] | 0.402 |
| C[C@@H]1Cc2c([nH]c3ccccc23)[C@@H](c2c(F)cc(OCCN3CC(CF)C3)cc2F)N1C(=O)C1CCO1 (stereo partly drawn) [Example 219, ((1R,3R)-1-(2,6-difluoro-4-(2-(3-(fluoromethyl)azetidin-1-yl)ethoxy)phenyl)-3-methyl-1,3,4,9-tetrahydro-2H-pyrido[3,4-b]indol-2-yl)(oxetan-2-yl)methanone] | 35 |
| C[C@@H]1Cc2c([nH]c3ccccc23)[C@@H](c2c(F)cc(OCCN3CC(CF)C3)cc2F)N1 [Example 220, (1R,3R)-1-[2,6-difluoro-4-[2-[3-(fluoromethyl)azetidin-1-yl]ethoxy]phenyl]-3-methyl-2,3,4,9-tetrahydro-1H-pyrido[3,4-b]indole] | 7 |
| C[C@@H]1Cc2c([nH]c3ccccc23)[C@@H](c2ccc(OCCN3CC(CF)C3)cc2)N1C(=O)C(C)(C)F [Example 221, 2-fluoro-1-[(1R,3R)-1-[4-[2-[3-(fluoromethyl)azetidin-1-yl]ethoxy]phenyl]-3-methyl-1,3,4,9-tetrahydropyrido[3,4-b]indol-2-yl]-2-methyl-propan-1-one] | 180 |
| C[C@@H]1Cc2c([nH]c3ccccc23)[C@@H](c2c(F)cc(OC3CN(CCCF)C3)cc2F)N1C(=O)C(C)(C)F [Example 222, 1-[(1R,3R)-1-[2,6-difluoro-4-[1-(3-fluoropropyl)azetidin-3-yl]oxy-phenyl]-3-methyl-1,3,4,9-tetrahydropyrido[3,4-b]indol-2-yl]-2-fluoro-2-methyl-propan-1-one] | 0.4 |
| C[C@@H]1Cc2c([nH]c3ccccc23)[C@@H](c2c(F)cc(OCCN3CC(CF)C3)cc2F)N1C(=O)CN(C)C [Example 223, 1-[(1R,3R)-1-[2,6-difluoro-4-[2-[3-(fluoromethyl)azetidin-1-yl]ethoxy]phenyl]-3-methyl-1,3,4,9-tetrahydropyrido[3,4-b]indol-2-yl]-2-(dimethylamino)ethanone] | 38 |
| C[C@@H]1Cc2c([nH]c3ccccc23)[C@@H](c2c(F)cc(OC3CN(CC4(F)CC4)C3)cc2F)N1CC(C)(C)F [Example 224, (1R,3R)-1-[2,6-difluoro-4-[1-[(1-fluorocyclopropyl)methyl]azetidin-3-yl]oxy-phenyl]-2-(2-fluoro-2-methyl-propyl)-3-methyl-1,3,4,9-tetrahydropyrido[3,4-b]indole] | 0.316 |
| C[C@@H]1Cc2c([nH]c3ccccc23)[C@@H](c2c(F)cc(OC3CN(CCCF)C3)cc2F)N1C(=O)C1(F)CCC1 [Example 225, [(1R,3R)-1-[2,6-difluoro-4-[1-(3-fluoropropyl)azetidin-3-yl]oxy-phenyl]-3-methyl-1,3,4,9-tetrahydropyrido[3,4-b]indol-2-yl]-(1-fluorocyclobutyl)methanone] | 1 |
| C[C@@H]1Cc2c([nH]c3ccccc23)[C@@H](c2c(F)cc(OC3CN(CCCF)C3)cc2F)N1C(=O)C1(C)CC1 [Example 226, [(1R,3R)-1-[2,6-difluoro-4-[1-(3-fluoropropyl)azetidin-3-yl]oxy-phenyl]-3-methyl-1,3,4,9-tetrahydropyrido[3,4-b]indol-2-yl]-(1-methylcyclopropyl)methanone] | 2 |
| C[C@@H]1Cc2c([nH]c3ccccc23)[C@@H](c2c(F)cc(OC3CN(CCCF)C3)cc2F)N1CC1(CF)CC1 [Example 227] | 0.17 |
| C[C@@H]1Cc2c([nH]c3ccccc23)[C@@H](c2c(F)cc(OC3CN(CCCF)C3)cc2F)N1CC1(CO)CC1 [Example 228, [1-[[(1R,3R)-1-[2,6-difluoro-4-[1-(3-fluoropropyl)azetidin-3-yl]oxy-phenyl]-3-methyl-1,3,4,9-tetrahydropyrido[3,4-b]indol-2-yl]methyl]cyclopropyl] methanol] | 1 |
| C[C@@H]1Cc2c([nH]c3ccccc23)[C@H](c2ccc(OCCN3CC(CF)C3)cc2F)N1C(=O)C(C)(C)F [Example 229, 2-fluoro-1-[(1S,3R)-1-[2-fluoro-4-[2-[3-(fluoromethyl)azetidin-1-yl]ethoxy]phenyl]-3-methyl-1,3,4,9-tetrahydropyrido[3,4-b]indol-2-yl]-2-methyl-propan-1-one] | 25 |
| C[C@@H]1Cc2c([nH]c3ccccc23)[C@@H](c2ccc(OCCN3CC(CF)C3)cc2F)N1C(=O)C(C)(C)F [Example 230, 2-fluoro-1-[(1R,3R)-1-[2-fluoro-4-[2-[3-(fluoromethyl)azetidin-1-yl]ethoxy]phenyl]-3-methyl-1,3,4,9-tetrahydropyrido[3,4-b]indol-2-yl]-2-methyl-propan-1-one] | 0.068 |
